Measurements: patent publication US12043600B2, “Microbiocidal compounds” (SYNGENTA CROP PROTECTION AG, priority 2018, dated 2024)

What was measured:
[1] = test system: Puccinia recondita f. sp. tritici; assay: Puccinia recondita f. sp. tritici/Wheat/Leaf Disc Curative (Brown Rust); format: in vivo; details: foliar, wheat leaf disc curative, compared to untreated control
Method in brief: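 Formulated compound, diluted in water, is applied to inoculated wheat cv. Kanzler leaf segments on agar one day post-inoculation (pre-incubation dark, 19° C, 75% rh). After 6-8 days at 19° C, 75% rh and 12 h/12 h light, activity is rated as percent disease control relative to untreated segments.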

[2] = test system: Puccinia recondita f. sp. tritici; assay: Puccinia recondita f. sp. tritici/Wheat/Leaf Disc Preventative (Brown Rust); format: in vivo; details: foliar, 200 ppm, wheat leaf disc preventative, compared to untreated control, read-out: control of Puccinia recondita f. sp. tritici
[3] = test system: Botryotinia fuckeliana (Botrytis cinerea); assay: Botryotinia fuckeliana (Botrytis cinerea)/Liquid Culture (Gray Mould); format: cell-based; details: liquid culture, compared to untreated control
Description: Conidia of the fungus from cryogenic storage are directly mixed into nutrient broth (Vogels broth). After placing a (DMSO) solution of test compound into a microtiter plate (96-well format), the nutrient broth containing the fungal spores is added.

[4] = test system: Phaeosphaeria nodorum (Septoria nodorum); assay: Phaeosphaeria nodorum (Septoria nodorum)/Wheat/Leaf Disc Preventative (Glume Blotch); format: in vivo; details: Parastagonospora nodorum, foliar, wheat leaf disc preventative, compared to untreated control
Method in brief: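 Preventative test: compound spray first, then spore inoculation after 2 days on cv. Kanzler wheat leaf segments. Incubation in a climate cabinet at 20 °C and 75% rh under a 12 h light/12 h dark cycle. Activity rated as % control relative to untreated discs at 5–7 days post-application.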

[5] = test system: Thanatephorus cucumeris (Rhizoctonia solani); assay: Thanatephorus cucumeris (Rhizoctonia solani)/Liquid Culture (Foot Rot, Damping-Off); format: cell-based; details: liquid culture, compared to untreated control
Description: Mycelia fragments of a newly grown liquid culture of the fungus are directly mixed into nutrient broth (PDB potato dextrose broth). After placing a (DMSO) solution of the test compounds into a microtiter plate (96-well format), the nutrient broth containing the fungal material is added.

[6] = test system: Mycosphaerella arachidis (Cercospora arachidicola); assay: Mycosphaerella arachidis (Cercospora arachidicola)/Liquid Culture (Early Leaf Spot); format: cell-based; details: liquid culture, compared to untreated control
Method in brief: (§1)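 Growth inhibition read in liquid culture: spores from frozen stocks, suspended in potato dextrose broth, meet DMSO-dissolved compound placed beforehand in the plate.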

[7] = test system: Magnaporthe grisea (Pyricularia oryzae); assay: whole plant or invertebrate; format: in vivo; details: foliar, read-out: control of Magnaporthe grisea
[8] = test system: Glomerella lagenarium (Colletotrichum lagenarium); assay: Glomerella lagenarium (Colletotrichum lagenarium)/Liquid Culture (Anthracnose); format: cell-based; details: Colletotrichum orbiculare, liquid culture, compared to untreated control
[9] = test system: Monographella nivalis (Microdochium nivale); assay: Monographella nivalis (Microdochium nivale)/Liquid Culture (Foot Rot Cereals); format: cell-based; details: liquid culture, compared to untreated control
Method in brief: as §1

[10] = test system: Blumeria graminis f. sp. tritici (Erysiphe graminis f. sp. tritici); assay: Blumeria graminis f. sp. tritici/Wheat/Leaf Disc Preventative (Powdery Mildew on Wheat); format: in vivo; details: foliar, wheat leaf disc preventative, compared to untreated control
Method in brief: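 Preventative leaf-disc test: percent disease control versus untreated leaf segments read 6-8 days post-application. Compound spray applied to wheat cv. Kanzler segments on agar one day before shaking infected plants over them; incubation at 20° C and 60% rh, 24 h darkness then 12 h light/12 h dark cycles.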

Phytophthora infestans = assay: whole plant or invertebrate; format: in vivo; details: in Solanum lycopersicum, foliar, read-out: control of Phytophthora infestans
Plasmopara viticola = assay: whole plant or invertebrate; format: in vivo; details: foliar, read-out: control of Plasmopara viticola
Alternaria solani = assay: Alternaria solani/Tomato/Leaf Disc (Early Blight); format: in vivo; details: foliar, tomato leaf disc, compared to untreated control
Description: Tomato leaf disks cv. Baby are placed on agar in multiwell plates (24-well format) and sprayed with the formulated test compound diluted in water. The leaf disks are inoculated with a spore suspension of the fungus 2 days after application. The inoculated leaf disks are incubated at 23° C./21° C. (day/night) and 80% rh (relative humidity) under a light regime of 12/12 h (light/dark) in a climate cabinet and the activity of a compound is assessed as percent disease control compared to untreated when an appropriate level of disease damage appears on untreated check disk leaf disks (5-7 days after application).

[11] = test system: Mycosphaerella graminicola (Septoria tritici); assay: Mycosphaerella graminicola (Septoria tritici)/Liquid Culture (Septoria Blotch); format: cell-based; details: Zymoseptoria tritici; 20 ppm; liquid culture; compared to untreated control
Method in brief: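 Results given as % disease control: test compound in DMSO was placed in wells first, then potato dextrose broth carrying cryostored fungal conidia was added.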

Pyrenophora teres = assay: Pyrenophora teres/Barley/Leaf Disc Preventative (Net Blotch); format: in vivo; details: foliar, 200 ppm, barley leaf disc preventative, compared to untreated control, read-out: control of Pyrenophora teres
Method in brief: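 Preventative leaf-disc test: inoculation with fungal spores took place 2 days after spraying segments of barley cv. Hasso, placed on agar, with water-diluted formulated compound. Read-out is % disease control per compound.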

Phakopsora pachyrhizi = assay: Phakopsora pachyrhizi/Soybean/Preventative (Soybean Rust); format: in vivo; details: foliar, 288 h, 200 ppm, soybean leaf disc preventative, compared to untreated control, read-out: control of Phakopsora pachyrhizi

CO/C=C(\Oc1cc(-n2cc(I)cn2)ccc1C)C(=O)OC [Compound E-60, methyl (Z)-2-[5-(4-iodopyrazol-1-yl)-2-methyl-phenoxy]-3-methoxy-prop-2-enoate]
pest or weed control at 200 ppm [1]: ≥ 80% | pest or weed control at 200 ppm [2]: ≥ 80% | inhibition of growth at 20 ppm [3]: ≥ 80% | pest or weed control at 200 ppm [4]: ≥ 80% | inhibition of growth at 20 ppm [5]: ≥ 80% | inhibition of growth at 20 ppm [6]: ≥ 80% | pest or weed control at 200 ppm [7]: ≥ 80% | inhibition of growth at 20 ppm [8]: ≥ 80% | inhibition of growth at 20 ppm [9]: ≥ 80% | pest or weed control at 200 ppm [10]: ≥ 80% | pest or weed control at 200 ppm (Phytophthora infestans): ≥ 80% | pest or weed control at 200 ppm (Plasmopara viticola): ≥ 80% | pest or weed control at 200 ppm (Alternaria solani): ≥ 80% | inhibition of growth at 20 ppm [11]: ≥ 80%

CO/C=C(\Oc1cc(-n2ccc(C3=CCCCC3)n2)ccc1C)C(=O)OC [Compound E-39, methyl (Z)-2-[5-[3-(cyclohexen-1-yl)pyrazol-1-yl]-2-methyl-phenoxy]-3-methoxy-prop-2-enoate]
pest or weed control at 200 ppm [1]: ≥ 80% | pest or weed control at 200 ppm [2]: ≥ 80% | pest or weed control at 200 ppm (Pyrenophora teres): ≥ 80% | inhibition of growth at 20 ppm [3]: ≥ 80% | inhibition of growth at 20 ppm [5]: ≥ 80% | inhibition of growth at 20 ppm [6]: ≥ 80% | pest or weed control at 200 ppm [7]: ≥ 80% | inhibition of growth at 20 ppm [8]: ≥ 80% | inhibition of growth at 20 ppm [9]: ≥ 80% | pest or weed control at 200 ppm [10]: ≥ 80% | pest or weed control at 200 ppm (Phytophthora infestans): ≥ 80% | melting point: 108 to 110 °C | pest or weed control at 200 ppm (Plasmopara viticola): ≥ 80% | pest or weed control at 200 ppm (Alternaria solani): ≥ 80% | inhibition of growth at 20 ppm [11]: ≥ 80%

C/C=C/c1ccn(-c2ccc(C)c(O/C(=C\OC)C(=O)OC)c2)n1 [Compound E-38, methyl (Z)-3-methoxy-2-[2-methyl-5-[3-[(E)-prop-1-enyl]pyrazol-1-yl]phenoxy]prop-2-enoate]
pest or weed control at 200 ppm [1]: ≥ 80% | pest or weed control at 200 ppm [2]: ≥ 80% | pest or weed control at 200 ppm (Pyrenophora teres): ≥ 80% | inhibition of growth at 20 ppm [3]: ≥ 80% | inhibition of growth at 20 ppm [5]: ≥ 80% | inhibition of growth at 20 ppm [6]: ≥ 80% | pest or weed control at 200 ppm [7]: ≥ 80% | inhibition of growth at 20 ppm [8]: ≥ 80% | inhibition of growth at 20 ppm [9]: ≥ 80% | pest or weed control at 200 ppm [10]: ≥ 80% | pest or weed control at 200 ppm (Phytophthora infestans): ≥ 80% | melting point: 110 to 112 °C | pest or weed control at 200 ppm (Plasmopara viticola): ≥ 80% | inhibition of growth at 20 ppm [11]: ≥ 80%

CO/C=C(\Oc1cc(-n2ccc(C(F)(F)F)n2)ccc1Cl)C(=O)OC [Compound E-98, methyl (Z)-2-[2-chloro-5-[3-(trifluoromethyl)pyrazol-1-yl]phenoxy]-3-methoxy-prop-2-enoate]
pest or weed control at 200 ppm (Phakopsora pachyrhizi): ≥ 50% | pest or weed control at 200 ppm [2]: ≥ 80% | inhibition of growth at 20 ppm [3]: ≥ 80% | inhibition of growth at 20 ppm [5]: ≥ 80% | inhibition of growth at 20 ppm [6]: ≥ 80% | pest or weed control at 200 ppm [7]: ≥ 80% | inhibition of growth at 20 ppm [8]: ≥ 80% | inhibition of growth at 20 ppm [9]: ≥ 80% | pest or weed control at 200 ppm [10]: ≥ 80% | pest or weed control at 200 ppm (Phytophthora infestans): ≥ 80% | pest or weed control at 200 ppm (Plasmopara viticola): ≥ 80% | pest or weed control at 200 ppm (Alternaria solani): ≥ 80% | inhibition of growth at 20 ppm [11]: ≥ 80%

C=Cc1ccn(-c2ccc(C)c(O/C(=C\OC)C(=O)OC)c2)n1 [Compound E-45, methyl (Z)-3-methoxy-2-[2-methyl-5-(3-vinylpyrazol-1-yl)phenoxy]prop-2-enoate]
pest or weed control at 200 ppm [1]: ≥ 80% | pest or weed control at 200 ppm [2]: ≥ 80% | pest or weed control at 200 ppm (Pyrenophora teres): ≥ 80% | pest or weed control at 200 ppm [4]: ≥ 80% | inhibition of growth at 20 ppm [5]: ≥ 80% | inhibition of growth at 20 ppm [6]: ≥ 80% | pest or weed control at 200 ppm [7]: ≥ 80% | inhibition of growth at 20 ppm [8]: ≥ 80% | inhibition of growth at 20 ppm [9]: ≥ 80% | pest or weed control at 200 ppm [10]: ≥ 80% | pest or weed control at 200 ppm (Phytophthora infestans): ≥ 80% | melting point: 114 to 117 °C | pest or weed control at 200 ppm (Plasmopara viticola): ≥ 80% | inhibition of growth at 20 ppm [11]: ≥ 80%

CO/C=C(\Oc1cc(C)cc(-n2ccc(C(F)(F)F)n2)c1)C(=O)OC [Compound E-34, methyl (Z)-3-methoxy-2-[3-methyl-5-[3-(trifluoromethyl)pyrazol-1-yl]phenoxy]prop-2-enoate]
pest or weed control at 200 ppm [2]: ≥ 80% | pest or weed control at 200 ppm (Pyrenophora teres): ≥ 80% | inhibition of growth at 20 ppm [3]: ≥ 80% | inhibition of growth at 20 ppm [5]: ≥ 80% | inhibition of growth at 20 ppm [6]: ≥ 80% | pest or weed control at 200 ppm [7]: ≥ 80% | inhibition of growth at 20 ppm [8]: ≥ 80% | inhibition of growth at 20 ppm [9]: ≥ 80% | pest or weed control at 200 ppm [10]: ≥ 80% | pest or weed control at 200 ppm (Phytophthora infestans): ≥ 80% | pest or weed control at 200 ppm (Plasmopara viticola): ≥ 80% | pest or weed control at 200 ppm (Alternaria solani): ≥ 80% | inhibition of growth at 20 ppm [11]: ≥ 80%

CO/C=C(\Oc1cc(-n2cc(C3CCCC3)cn2)ccc1C)C(=O)OC [Compound E-58, methyl (Z)-2-[5-(4-cyclopentylpyrazol-1-yl)-2-methyl-phenoxy]-3-methoxy-prop-2-enoate]
pest or weed control at 200 ppm (Phakopsora pachyrhizi): ≥ 50% | pest or weed control at 200 ppm [1]: ≥ 80% | pest or weed control at 200 ppm [2]: ≥ 80% | inhibition of growth at 20 ppm [3]: ≥ 80% | pest or weed control at 200 ppm [4]: ≥ 80% | inhibition of growth at 20 ppm [5]: ≥ 80% | inhibition of growth at 20 ppm [6]: ≥ 80% | pest or weed control at 200 ppm [7]: ≥ 80% | inhibition of growth at 20 ppm [8]: ≥ 80% | inhibition of growth at 20 ppm [9]: ≥ 80% | pest or weed control at 200 ppm [10]: ≥ 80% | pest or weed control at 200 ppm (Phytophthora infestans): ≥ 80% | pest or weed control at 200 ppm (Plasmopara viticola): ≥ 80% | pest or weed control at 200 ppm (Alternaria solani): ≥ 80% | inhibition of growth at 20 ppm [11]: ≥ 80%

CO/C=C(\Oc1cc(-n2ccc(C(C)=NOC)n2)ccc1C)C(=O)OC [Compound E-30, methyl (Z)-3-methoxy-2-[5-[3-(N-methoxy-C-methyl-carbonimidoyl)pyrazol-1-yl]-2-methyl-phenoxy]prop-2-enoate]
pest or weed control at 200 ppm (Phakopsora pachyrhizi): ≥ 50% | pest or weed control at 200 ppm [1]: ≥ 80% | pest or weed control at 200 ppm [2]: ≥ 80% | inhibition of growth at 20 ppm [3]: ≥ 80% | pest or weed control at 200 ppm [4]: ≥ 80% | inhibition of growth at 20 ppm [5]: ≥ 80% | inhibition of growth at 20 ppm [6]: ≥ 80% | pest or weed control at 200 ppm [7]: ≥ 80% | inhibition of growth at 20 ppm [8]: ≥ 80% | inhibition of growth at 20 ppm [9]: ≥ 80% | pest or weed control at 200 ppm (Phytophthora infestans): ≥ 80% | melting point: 130 to 133 °C | pest or weed control at 200 ppm (Plasmopara viticola): ≥ 80% | pest or weed control at 200 ppm (Alternaria solani): ≥ 80% | inhibition of growth at 20 ppm [11]: ≥ 80%

CO/C=C(\Oc1cc(-n2cc(C(C)C)cn2)ccc1C)C(=O)OC [Compound E-57, methyl (Z)-2-[5-(4-isopropylpyrazol-1-yl)-2-methyl-phenoxy]-3-methoxy-prop-2-enoate]
pest or weed control at 200 ppm (Phakopsora pachyrhizi): ≥ 50% | pest or weed control at 200 ppm [1]: ≥ 80% | pest or weed control at 200 ppm [2]: ≥ 80% | inhibition of growth at 20 ppm [3]: ≥ 80% | pest or weed control at 200 ppm [4]: ≥ 80% | inhibition of growth at 20 ppm [5]: ≥ 80% | inhibition of growth at 20 ppm [6]: ≥ 80% | pest or weed control at 200 ppm [7]: ≥ 80% | inhibition of growth at 20 ppm [8]: ≥ 80% | inhibition of growth at 20 ppm [9]: ≥ 80% | pest or weed control at 200 ppm [10]: ≥ 80% | pest or weed control at 200 ppm (Phytophthora infestans): ≥ 80% | pest or weed control at 200 ppm (Plasmopara viticola): ≥ 80% | pest or weed control at 200 ppm (Alternaria solani): ≥ 80% | inhibition of growth at 20 ppm [11]: ≥ 80%
